From the supplement of paper PMC3974653 come the findings set out here.

Structures can show the parent of a compound that is named as a salt.

The test system of the test is MTT (mouse pheochromocytoma). The experiment in a line: IC50 of cell viability (ATP content). The following applies: (24 or 48 h). An outline of the steps: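 CellTiter-Glo ATP luminescence, read after 15 minutes, was used to assess MTT mouse pheochromocytoma cells treated for 24 or 48 hrs with library compounds (final 0.5 nM to 46 µM, 8 concentrations). The cells had been plated at 5 µl of 200,000 cells/ml per well in white 1536-well plates in DMEM with 5% FBS and 1% horse serum and cultured overnight at 37°C, 5% CO2. Normalisation set positive-control wells to 100% and DMSO wells to 0%. The IC50 was then determined by four-parameter logistic fitting.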

As for `Cc1ccc(Cl)c(O)c1` [CHLORO-M-CRESOL], the “IC50 of cell viability” value was more than 46 µM.

Regarding `CC(C)(O)C(Cl)(Cl)Cl` [CHLOROBUTANOL], the “IC50 of cell viability” value is more than 46 µM.

Consider `CC[NH+](CC)CCOC(=O)c1ccc(N)cc1Cl` [CHLOROPROCAINE HYDROCHLORIDE], for which the “IC50 of cell viability” value is more than 46 µM.

With `Cc1cc(O)c(C(C)C)cc1Cl` [CHLOROTHYMOL], the “IC50 of cell viability” value is more than 46 µM.

As to `C=C1CC[C@H](O)C/C1=C/C=C1\CCC[C@]2(C)[C@@H]([C@H](C)CCCC(C)C)CC[C@@H]12` [CHOLECALCIFEROL], the “IC50 of cell viability” value is more than 46 µM.

Turning to `CC(C)CCC[C@@H](C)[C@H]1CC[C@H]2[C@@H]3CC=C4C[C@@H](O)CC[C@]4(C)[C@H]3CC[C@]12C` [CHOLESTEROL], the “IC50 of cell viability” value is more than 46 µM.

Consider `O=C(O)c1ccccn1` [CHROMIUM PICOLINATE], for which the “IC50 of cell viability” value is more than 46 µM.

As to `OC(=O)C/1=C/C(=O)C2=C(O1)C=CC=C2` [CHROMOCARB], the “IC50 of cell viability” value is more than 46 µM.

Regarding `COC(C(=O)C(O)C(C)O)C1Cc2cc3cc(OC4CC(OC5CC(O)C(OC)C(C)O5)C(OC(C)=O)C(C)O4)c(C)c(O)c3c(O)c2C(=O)C1OC1CC(OC2CC(OC3CC(C)(O)C(OC(C)=O)C(C)O3)C(O)C(C)O2)C(O)C(C)O1` (stereo unspecified) [CHROMOMYCIN A3], the “IC50 of cell viability” value is more than 46 µM.

For `Nc1c(/N=N/c2ccc(-c3ccc(/N=N/c4cc(S(=O)(=O)[O-])c5ccccc5c4N)cc3)cc2)cc(S(=O)(=O)[O-])c2ccccc12` [CI DIRECT RED 28], the “IC50 of cell viability” value is more than 46 µM.

`O=C(NOCC1CC1)c1ccc(F)c(F)c1Nc1ccc(I)cc1Cl` [CI-1040]: the “IC50 of cell viability” value was more than 46 µM.

On to `CC(C)C(=O)OCC(=O)[C@@]12OC(C3CCCCC3)O[C@@H]1CC1C3CCC4=CC(=O)C=C[C@]4(C)C3[C@@H](O)C[C@@]12C` (stereo partly specified) [CICLESONIDE], for which the “IC50 of cell viability” value was more than 46 µM.

For `NC/1=N/C(=O)N(C[C@@H](CO)OC[P](O)(O)=O)/C=C1` [CIDOFOVIR], the “IC50 of cell viability” value is more than 46 µM.

On to `CC1(C)CC1C(=O)N/C(=C/CCCCSCC(N)C(=O)[O][Na])C(=O)O` (stereo unspecified) [CILASTATIN SODIUM], for which the “IC50 of cell viability” value was more than 46 µM.

In the case of `CC1(C)C[C@@H]1C(=O)N/C(=C\CCCCSC[C@H](N)C(=O)O)C(=O)O` [CILASTATIN SODIUM], the “IC50 of cell viability” value is more than 46 µM.

Turning to `COc1ccc([C@]2(C#N)CC[C@H](C(=O)O)CC2)cc1OC1CCCC1` [CILOMILAST], the “IC50 of cell viability” value was more than 46 µM.

As for `O=C1CCc2cc(OCCCCc3nnnn3C3CCCCC3)ccc2N1` [CILOSTAZOL], the “IC50 of cell viability” value is more than 46 µM.

As to `CC(C)NCC(O)c1ccc(N)c(C#N)c1` (stereo unspecified) [CIMATEROL], the “IC50 of cell viability” value is more than 46 µM.

Regarding `CCC(CC)(CC(=O)Nc1cccc(/C=C/c2nc(C3CCC3)cs2)c1)C(=O)O` [CINALUKASTUM], the “IC50 of cell viability” value was more than 46 µM.

With `CN(C)CCCSc1ccccc1NC(=O)/C=C/c1ccccc1` [CINANSERIN], the “IC50 of cell viability” value is more than 46 µM.

Regarding `O=C(O)c1cc(-c2ccccc2)nc2ccccc12` [CINCHOPHENUM], the “IC50 of cell viability” value is more than 46 µM.

Take `COc1cc(/C=C/C(=O)N2CCN(CC(=O)N3CCCC3)CC2)cc(OC)c1OC` [CINEPAZIDE MALEATE]: the “IC50 of cell viability” value is more than 46 µM.

Consider `O=C/C=C/c1ccccc1` [CINNAMALDEHYDE], for which the “IC50 of cell viability” value was more than 46 µM.

Take `O=C(O)/C=C/c1ccccc1` [CINNAMIC ACID]: the “IC50 of cell viability” value was more than 46 µM.

`CCNC(=O)/C=C/c1cccc(Br)c1` [CINROMIDUM]: the “IC50 of cell viability” value is more than 46 µM.

In the case of `C1C\N=C(\COC2=C(C=CC=C2)C3CC3)N1` [CIRAZOLINE], the “IC50 of cell viability” value was more than 46 µM.

Consider `CCC1OC(=O)C(C)[C@@H](O[C@H]2C[C@@](C)(OC)C(O)C(C)O2)C(C)[C@@H](O[C@@H]2OC(C)CC(N(C)C)C2O)[C@@](C)(OC)CC(C)C(=O)[C@@H](C)C(O)[C@]1(C)O` (stereo partly specified) [CLARITHROMYCIN], for which the “IC50 of cell viability” value is more than 46 µM.

In the case of `O=C(O)C1/C(=C/CO)OC2CC(=O)N21.[Li]` (stereo unspecified) [CLAVULANATE LITHIUM], the “IC50 of cell viability” value was more than 46 µM.

As for `CC(C)(C)NCC(O)c1cc(Cl)c(N)c(Cl)c1` (stereo unspecified) [CLENBUTEROL], the “IC50 of cell viability” value is more than 46 µM.

Take `CCC[C@H]1C[C@H](C(=O)NC(C(C)Cl)C2O[C@@H](SC)C(OP(=O)(O)O)[C@@H](O)[C@@H]2O)N(C)C1` (stereo partly specified) [CLINDAMYCIN PO4]: the “IC50 of cell viability” value is more than 46 µM.

`CCC(C)(Oc1ccc(C2(c3ccc(OC(C)(CC)C(=O)O)cc3)CCCCC2)cc1)C(=O)O` (stereo unspecified) [CLINOFIBRATE]: the “IC50 of cell viability” value was more than 46 µM.
